Where “and” joins values, the source holds several entries; their conditions need not be identical. Identical values can stand only once. Calls of active or inactive are those of the source.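 Rule for the calls: active = compounds giving half or more protection of infected cells from virus-caused growth loss, again on retest; inactive = the rest.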

76 compounds from PubChem BioAssay AID179 (DTP/NCI, 2004) can be followed below.

In this assay the test system is CEM cells HIV-1 protection, formazan growth assay. Nature of the assay: NCI AIDS Antiviral Assay. To be noted: for IC50: measured here: growth of uninfected CEM cells. Put shortly:
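CEM (human) cells, HIV-1 infected vs uninfected, 5-point dosing, formazan growth read-out. Retest threshold 50% protection.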

Regarding `O=[N+]([O-])c1ccc(C2=Nn3c(nnc3-c3ccc(Cl)cc3)SC2)o1`, the result was inactive.

`Cc1cc(Br)cc(C)c1NC(=O)C(=O)CC(=O)c1sc(-n2nc(-c3ccccc3)cc2-c2ccccc2)nc1C`: the result was inactive.

By EC50 is commonly meant the midpoint of the concentration-response curve. As usually defined, the IC50 is the concentration at which inhibition is half-maximal. Low readings indicate inhibition by little substance, high ones a need for much substance. In the case of `CCN1CCCCC(=N\O)/C(=N/O)CCCC1`, the EC50 is over 741 µM and the IC50 was over 741 µM.

Take `CC(C(=O)O)c1cnn(-c2ccccc2)c1-n1cccc1` (stereo unspecified): the result was inactive.

As to `CC1=CC(=O)/C(=C/n2c(=S)[nH]c3ccccc32)C(=O)O1`, the EC50 is over 200 µM and the IC50 is over 200 µM.

Regarding `COc1cc(/C=C/C=C2\CC(C)C/C(=C\C=C\c3ccc(O)c(OC)c3)C2=O)ccc1O` (stereo unspecified), the EC50 was over 200 µM and the half-inhibitory concentration (IC50) stood at 1.41 µM.

With `O=C(CCCl)NNC1=NCCCN1`, the EC50 is over 200 µM and the IC50 was over 200 µM.

As to `CC1=CSC2=NCCN12`, the EC50 is over 200 µM and the IC50 was over 200 µM.

For `CON1C(=O)C2(CCCCC2)C(=O)C12C=CC(C)CC2` (stereo unspecified), the EC50 is over 162 µM and the IC50 was over 162 µM.

Consider `CC(C)OC(=O)c1cc(NC(=O)C(C)(C)C)c(F)cc1Cl`, for which the result was inactive.

As for `O=C(O)c1c(O)c2cc(Cl)ccc2oc1=O`, the EC50 is over 200 µM and the IC50 was 158 µM.

In the case of `CCCCC[C@@H]1CCCC2N=C(CCCCC3OCCO3)CCC21` (stereo partly specified), the outcome was inactive.

Consider `C[n+]1ccccc1-c1nc(-c2cccc[n+]2C)nc(-c2cccc[n+]2C)n1`, for which the EC50 was over 200 µM and the IC50 is over 200 µM.

Take `Cn1c(-c2ccc(/C=N/N=C(\N)N/N=C/c3ccc(-c4c[n+]5ccsc5n4C)cc3)cc2)c[n+]2ccsc12`: the EC50 is 6.03 µM and the IC50 was 120 µM.

Turning to `CC1CN=C(N(C(=O)Nc2ccc(Cl)cc2)c2cccc(Cl)c2)S1` (stereo unspecified), the result was inactive.

`O=C(CC(=O)c1cccnc1)NC(=O)c1ccccc1`: the EC50 is over 355 µM and the IC50 was over 355 µM.

For the compound `C=CCCCC1CCCNC1=O` (stereo unspecified), the EC50 is over 1480 µM and the IC50 was 1150 µM.

Take `Cc1nc(N)nc(N)c1-c1ccc(Cl)c(Cl)c1`: the EC50 was over 200 µM.

`OC(CCN1CCCCCC1)(Cc1ccccc1)c1ccccc1` (stereo unspecified): the EC50 was over 200 µM and the IC50 amounted to 81.3 µM.

As to `C1CC[N+]2(C1)CC[N+]1(CCCC1)CC2`, the EC50 was over 200 µM and the IC50 is over 200 µM.

For the compound `C=CC12CCC(CC1)n1c(=O)n(C)c(=O)n12`, the EC50 is over 200 µM and the IC50 was over 200 µM.

`CC1=C2CCCC2=C/C(=N/Nc2ccc([N+](=O)[O-])cc2[N+](=O)[O-])CC1`: the result was inactive.

For the compound `Cc1cc2c(ccc3c(C)cc(=O)oc32)o1`, the outcome was inactive.

With `CC1=NN2C(c3ccc(Cl)cc3)=CSC2=NC(C)(C)C1`, the EC50 was over 162 µM and the IC50 is 93.3 µM.

On to `CN=C1N[N+]2=CCSCC2(C)S1` (stereo unspecified), for which the outcome was inactive.

In the case of `CCN(CC)c1ccc2cc(-c3csc(C)n3)c(=O)oc2c1`, the EC50 was over 200 µM and the IC50 worked out at 10.2 µM.

As for `[N-]=[N+]=N[C@H]1C[C@@H](CO)O[C@H]1n1cnc2c(N)ncnc21`, the result was inactive.

Turning to `CSc1ccc(Nc2cc(=O)[nH]c(=O)[nH]2)cc1`, the EC50 was over 200 µM and the IC50 is over 200 µM.

Regarding `Cc1cn([C@H]2C[C@@H]3[C@@H](COC(C)(C[Se]c4ccccc4)N3O)O2)c(=O)[nH]c1=O` (stereo partly specified), the EC50 was 50.1 µM and the IC50 stood at 162 µM.

As to `O=NN(CCCl)C(=O)/N=N/C(=O)N(CCCl)N=O`, the EC50 was over 200 µM and the IC50 came out at 15.1 µM.

With `CC(C)(C)OC[C@H](O)CC#N`, the EC50 is over 200 µM and the IC50 is over 200 µM.

For the compound `COc1ccc2c(c1)CCCN1CCc3ccccc3C21` (stereo unspecified), the EC50 is over 200 µM and the IC50 came to 110 µM.

For the compound `CCCOC1OC(CS(=O)(=O)O)C(OC(C)=O)C(OC(C)=O)C1OC(C)=O` (stereo unspecified), the result was inactive.

As to `C/C(CC(O)(C(F)(F)F)C(F)(F)F)=N\NC(N)=S`, the EC50 was over 200 µM and the IC50 is over 200 µM.

Regarding `COc1ccc2cc1Oc1ccc(cc1)CC1c3cc(c(OC)cc3CCN1C)Oc1c3c(cc4c1C(C2)N(C)CC4)OCO3` (stereo unspecified), the result was inactive.

Take `Cc1cn(COCCOP(=O)(OCOC(=O)C(C)(C)C)OCOC(=O)C(C)(C)C)c(=O)[nH]c1=O`: the EC50 is over 200 µM and the IC50 was found to be 110 µM.

On to `CC(=O)OC1COC(n2c(=S)n(-c3ccccc3)c(=O)c3cc(Br)ccc32)C(OC(C)=O)C1OC(C)=O` (stereo unspecified), for which the EC50 is over 17 µM and the IC50 was over 17 µM.

Turning to `CCN(C(=S)N[C@H](C(=O)N[C@@H](C)C(=O)OC)C(C)C)c1ccccc1`, the EC50 was 0.575 µM and the IC50 is 29.5 µM.

Regarding `O=[N+]([O-])c1cccc2nc3ccccc3c(NCCCCNc3c4ccccc4nc4cccc([N+](=O)[O-])c34)c12`, the EC50 was over 0.1 µM and the IC50 stood at 0.0162 µM.

On to `O=P(O)(O)CN1CCN(CP(=O)(O)O)CCN(CP(=O)(O)O)CCN(CP(=O)(O)O)CC1`, for which the EC50 is over 100 µM and the 50% inhibitory concentration (IC50) worked out at 20.4 µM.

As for `O=S(=O)(c1ccccc1)C1(Sc2ccccc2)CC=CC1`, the EC50 was over 81.3 µM and the IC50 worked out at 51.3 µM.

Regarding `C/C(=N\Nc1ccc2ccccc2n1)c1ccccc1O`, the EC50 is over 200 µM and the IC50 amounted to 6.46 µM.

Turning to `CC1CC(=O)Nc2nc3ccccc3n21` (stereo unspecified), the EC50 was over 200 µM and the IC50 was over 200 µM.

Regarding `O=C1c2cc(-c3ccccc3)cnc2S(=O)(=O)N1c1ccc(Br)cc1`, the EC50 was over 200 µM and the IC50 was determined as 16.6 µM.

Consider `COC(=O)C=C(c1cc(Cl)c(OC)c(C(=O)OC)c1)c1cc(Cl)c(OC)c(C(=O)OC)c1`, for which the EC50 is over 200 µM and the IC50 worked out at 17.8 µM.

`Nc1ccc(C(=O)N/C(=C\C=C\c2ccco2)c2nc3[nH]c(=S)[nH]c(=O)c3[nH]2)cc1`: the result was inactive.

With `O=[N+]([O-])c1ccc2nc(/C=C(\O)c3ccccc3)c(/C=C(\O)c3ccc(Cl)cc3)nc2c1`, the EC50 was over 100 µM and the IC50 stood at 11 µM.

Regarding `N#C/C(=C\c1cccc(Cl)c1Cl)c1ccccc1`, the EC50 was over 24.5 µM and the IC50 is over 24.5 µM.

As to `CC12CCC(C(Br)C1=O)C2(C)CBr` (stereo unspecified), the outcome was inactive.

For `COc1ccc(-c2nc3c(=O)n(C)c(=O)nc-3n(C)n2)cc1OC`, the EC50 was over 20 µM and the IC50 came to 0.447 µM.

For the compound `CC(C)C1CCC/C=C/C=C/C=C/C=C/C(OC2OC(C)C(O)C(N)C2O)CC2OC(O)(CC(O)CC(O)C(O)CCC(=O)O1)CC(O)C2C(=O)O` (stereo unspecified), the EC50 is over 339 µM and the IC50 is over 339 µM.

Regarding `Nc1nc2c(ncn2CC2CCOC2=O)c(=O)[nH]1` (stereo unspecified), the result was inactive.

Consider `O=C(O)c1c2c(cc3c1CC(Cc1ccccc1)C3=O)CCC2` (stereo unspecified), for which the EC50 is over 200 µM and the IC50 turned out to be 64.6 µM.

Regarding `COc1ccc2c(c1)CCC1=C2CC(=O)N2CCCCN12`, the EC50 is over 91.2 µM and the IC50 was over 91.2 µM.

With `O=C1OC[C@H](Cc2ccccc2)N1C(=O)[C@H]1NC(=S)OC1Cc1ccc(OCc2ccccc2)cc1` (stereo partly specified), the outcome was inactive.

Turning to `OCCN(CCO)c1cccc(N(CCO)CCO)c1`, the outcome was inactive.

Turning to `ClC1c2ccccc2C2(c3ccccc3)OOC1(c1ccccc1)O2` (stereo unspecified), the outcome was inactive.

For the compound `CSC(Cc1ccc2c(c1)Sc1ccccc1O2)=[N+]1CCOCC1`, the EC50 was over 200 µM and the IC50 is 44.7 µM.

Regarding `Cc1ccc2nc(NC(=O)C(=O)C3C(=O)NC(=S)NC3=O)sc2c1`, the EC50 is over 692 µM and the IC50 turned out to be 417 µM.

Take `O=P1(CCc2ccc(Cl)cc2)CC(Br)C(Br)C1` (stereo unspecified): the EC50 is over 631 µM and the IC50 was found to be 38 µM.

With `CCCCCCCCOC1OC(COC(C)=O)C(OC(C)=O)C(OC(C)=O)C1OC(C)=O` (stereo unspecified), the EC50 was over 100 µM; the IC50 is > 100 µM and 95.5 µM.

Regarding `CC1(C)CC(=O)C(CC2C(=O)CC(C)(C)CC2=O)C(=O)C1`, the EC50 is over 200 µM and the IC50 was over 200 µM.

Consider `Cc1ccc(C(=O)/C=C/c2cccc([N+](=O)[O-])c2)cc1`, for which the EC50 is over 37.2 µM and the IC50 was over 37.2 µM.

`N=C1N(c2ccccc2)C(=O)C23CCCC2C13N1CCOCC1` (stereo unspecified): the EC50 was over 219 µM and the IC50 was over 219 µM.

Regarding `Cc1nnc(N)nc1C/C=C/C(Sc1ccc(Cl)cc1)c1ccccc1` (stereo unspecified), the EC50 is over 9.77 µM and the IC50 came out at 3.98 µM.

As for `COc1cc(/C=N/N=C(\N)NO)cc(OC)c1OC`, the EC50 was over 200 µM and the IC50 turned out to be 105 µM.

Regarding `Cc1csc2nc(-c3cccs3)nn12`, the EC50 was over 200 µM and the IC50 is over 200 µM.

In the case of `[N-]=[N+]=NCC1OCC(O)C(OCc2ccccc2)C1OCc1ccccc1` (stereo unspecified), the EC50 is over 200 µM and the IC50 worked out at 95.5 µM.

Regarding `CC1=C(C)C(=O)C(C2=CC(=O)C=CC2=O)=C(C2=CC(=O)C=CC2=O)C1=O`, the EC50 is over 200 µM and the IC50 is 9.77 µM.

Turning to `Cc1cc(O)c(/C=N/C(=S)Nc2ccc(S(N)(=O)=O)cc2)c(=O)o1`, the EC50 was over 200 µM and the IC50 was over 200 µM.

`CC1=C(C(=O)OC23CC4CC(CC(C4)C2)C3)C(c2ccccc2OC(F)F)C(C(=O)OC23CC4CC(CC(C4)C2)C3)=C(C)N1` (stereo unspecified): the EC50 was over 100 µM and the IC50 is over 100 µM.

As to `CCOC(=O)/C(=C\c1ccc(Cl)cc1)[Se]c1ccccc1`, the EC50 is over 97.7 µM and the IC50 was over 97.7 µM.

`O=S(=O)(O)SCCNCCCCC1CCCCC1`: the EC50 was over 200 µM and the IC50 came to 10.2 µM.

Turning to `Cc1[nH]c2c(C)cccc2c1C1Cc2ccccc2N1` (stereo unspecified), the result was inactive.

As to `O=c1oc2ccccc2c(O)c1C1c2c(c3ccccc3oc2=O)Oc2c1c(=O)oc1ccccc21`, the outcome was inactive.

As to `CC(=O)OCC1OC(Nc2[nH]c(=O)[nH]c(=O)c2N=O)C(OC(C)=O)C(OC(C)=O)C1OC(C)=O` (stereo unspecified), the EC50 was over 200 µM and the half-maximal inhibitory concentration (IC50) is over 200 µM.
